ChEMBL document CHEMBL4765306, “Design, synthesis and biological evaluation of novel naturally-inspired multifunctional molecules for the management of Alzheimer's disease” (Eur J Med Chem, 2020)
Calls of active or inactive are those of the source. The rule behind the calls is not given here.

What was measured:
Acetylcholinesterase [1] = molecular target: T1, Acetylcholinesterase (Homo sapiens, UniProt P22303); test: Inhibition of recombinant human erythrocyte AChE using acetylthiocholine iodide as substrate preincubated for 30 mins followed by substrate addition and measured after 30 mins by spectrophotometry based Ellman's method
[2] = molecular target: Cholinesterase (Equus caballus) (UniProt P81908); test: Inhibition of […] equine serum BuChE at 20 uM using butyryl thiocholine iodide as substrate preincubated for 30 mins followed by substrate addition and measured after 30 mins by spectrophotometry based Ellman's method relative to control; assay type: cell-free; settings: time 60.0 min
Mus musculus [3] = test: Memory enhancement effect in scopolamine-induced Swiss albino mouse model of amnesia assessed as increase in spontaneous alteration at 5 mg/kg, po administered for 7 days and observed after 30 mins before scopolamine treatment and measured after 15 mins by Y-maze test; assay type: functional, organism-based; settings: time 7.0 day
Mus musculus [4] = test: Memory enhancement effect in scopolamine-induced Swiss albino mouse model of amnesia assessed as effect on total arm entries at 5 mg/kg, po administered for 7 days and observed after 30 mins before scopolamine treatment and measured after 15 mins by Y-maze test; assay type: functional, organism-based; settings: time 7.0 day
Homo sapiens = species on record: Homo sapiens; test: Disruption of human amyloid beta 1 to 42 assessed as effect on amyloid beta 1 to 42 morphology at 1.58 uM incubated for 10 days by atomic force microscopic analysis; settings: time 10.0 day
Cholinesterase = Cholinesterase (Equus caballus, UniProt P81908); test: Inhibition of […] equine serum BuChE using butyryl thiocholine iodide as substrate preincubated for 30 mins followed by substrate addition and measured after 30 mins by spectrophotometry based Ellman's method; assay type: cell-free
[5] = Antioxidant activity assessed as DPPH radical scavenging activity incubated for 25 mins in shaker; assay type: functional
[6] = Antioxidant activity assessed as DPPH radical scavenging activity at 20 uM incubated for 25 mins in shaker relative to control; assay type: functional
Mus musculus [7] = test: Ex vivo inhibition of BChE in brain of scopolamine-induced Swiss albino mouse model of amnesia at 6.25 to 25 mg/kg, po administered for 7 days and observed after 30 mins before scopolamine treatment and measured after 15 mins using butyryl thiocholine iodide as substrate by Ellman's method; assay type: functional, organism-based; settings: dose 6.25-25 mg/kg, time 7.0 day
Mus musculus [8] = test: Memory enhancement effect in scopolamine-induced Swiss albino mouse model of amnesia assessed as effect on total arm entries at 6.25 to 25 mg/kg, po administered for 7 days and observed after 30 mins before scopolamine treatment and measured after 15 mins by Y-maze test; assay type: functional, organism-based; settings: dose 6.25-25 mg/kg, time 7.0 day
[9] = molecular target: Cholinesterase (Equus caballus) (UniProt P81908); test: Mixed-type inhibition of […] equine serum BuChE at 7.5 to 30 uM using butyryl thiocholine iodide as substrate preincubated for 30 mins followed by substrate addition and measured after 30 mins by Lineweaver-burk plot analysis; assay type: cell-free; settings: dose 7.5-30 µM, time 60.0 min
Mus musculus [10] = test: Ex vivo antioxidant activity in brain of scopolamine-induced Swiss albino mouse model of amnesia assessed as increase in SOD level at 6.25 to 25 mg/kg, po administered for 7 days and observed after 30 mins before scopolamine treatment and measured after 15 mins; assay type: functional, organism-based; settings: dose 6.25-25 mg/kg, time 7.0 day
[11] = Acute toxicity in Swiss albino mouse assessed as abnormal behaviour at 500 mg/kg, po administered once and observed for 14 days; assay type: organism-based; settings: in vivo, 336 h, time 14 day
Mus musculus [12] = test: Ex vivo antioxidant activity in brain of scopolamine-induced Swiss albino mouse model of amnesia assessed as increase in CAT level at 6.25 to 25 mg/kg, po administered for 7 days and observed after 30 mins before scopolamine treatment and measured after 15 mins; assay type: functional, organism-based; settings: dose 6.25-25 mg/kg, time 7.0 day
[13] = Cytotoxicity against human SH-SY5Y cells assessed as reduction in cell viability at 20 uM incubated for 24 hrs by MTT assay; assay type: cell-based; settings: read-out: INH
[14] = Acute toxicity in Swiss albino mouse assessed as effect on food consumption at 500 mg/kg, po administered once and observed for 14 days; assay type: organism-based; settings: in vivo, 336 h, time 14 day
Mus musculus [15] = test: Ex vivo inhibition of AChE in brain of scopolamine-induced Swiss albino mouse model of amnesia at 6.25 to 25 mg/kg, po administered for 7 days and observed after 30 mins before scopolamine treatment and measured after 15 mins using acetylthiocholine iodide as substrate by Ellman's method; assay type: functional, organism-based; settings: dose 6.25-25 mg/kg, time 7.0 day
Mus musculus [16] = test: Memory enhancement effect in scopolamine-induced Swiss albino mouse model of amnesia assessed as increase in spontaneous alteration at 6.25 to 25 mg/kg, po administered for 7 days and observed after 30 mins before scopolamine treatment and measured after 15 mins by Y-maze test; assay type: functional, organism-based; settings: dose 6.25-25 mg/kg, time 7.0 day
Acetylcholinesterase [17] = molecular target: T1, Acetylcholinesterase; test: Non-competitive inhibition of recombinant human erythrocyte AChE at 1 to 10 uM using acetylthiocholine iodide as substrate preincubated for 30 mins followed by substrate addition and measured after 30 mins by Lineweaver-burk plot analysis; settings: dose 1-10 µM, time 60.0 min
[18] = Metal chelating activity assessed as Fe3+-compound complex formation at 300 uM measured for 30 mins by MS-MS analysis
[19] = Metal chelating activity assessed as Fe3+-compound complex formation at 300 uM measured for 30 mins by UV-Visible spectrophotometric method
[20] = Acute toxicity in Swiss albino mouse assessed as effect on water consumption at 500 mg/kg, po administered once and observed for 14 days; assay type: organism-based; settings: in vivo, 336 h, time 14 day
[21] = Acute toxicity in Swiss albino mouse assessed as organism death at 500 mg/kg, po administered once and observed for 14 days; assay type: organism-based; settings: in vivo, 336 h, time 14 day
Mus musculus [22] = test: Ex vivo antioxidant activity in brain of scopolamine-induced Swiss albino mouse model of amnesia assessed as decrease in MDA level at 6.25 to 25 mg/kg, po administered for 7 days and observed after 30 mins before scopolamine treatment and measured after 15 mins; assay type: functional, organism-based; settings: dose 6.25-25 mg/kg, time 7.0 day
[23] = Acute toxicity in Swiss albino mouse assessed as effect on body weight at 500 mg/kg, po administered once and observed for 14 days; assay type: organism-based; settings: in vivo, 336 h, time 14 day
[24] = Acute toxicity in Swiss albino mouse assessed as liver damage at 500 mg/kg, po administered once and observed after 14 days by microscopic analysis; assay type: organism-based; settings: in vivo, 336 h, time 14 day

Sequence of Cholinesterase (Equus caballus) (P81908 whole entry): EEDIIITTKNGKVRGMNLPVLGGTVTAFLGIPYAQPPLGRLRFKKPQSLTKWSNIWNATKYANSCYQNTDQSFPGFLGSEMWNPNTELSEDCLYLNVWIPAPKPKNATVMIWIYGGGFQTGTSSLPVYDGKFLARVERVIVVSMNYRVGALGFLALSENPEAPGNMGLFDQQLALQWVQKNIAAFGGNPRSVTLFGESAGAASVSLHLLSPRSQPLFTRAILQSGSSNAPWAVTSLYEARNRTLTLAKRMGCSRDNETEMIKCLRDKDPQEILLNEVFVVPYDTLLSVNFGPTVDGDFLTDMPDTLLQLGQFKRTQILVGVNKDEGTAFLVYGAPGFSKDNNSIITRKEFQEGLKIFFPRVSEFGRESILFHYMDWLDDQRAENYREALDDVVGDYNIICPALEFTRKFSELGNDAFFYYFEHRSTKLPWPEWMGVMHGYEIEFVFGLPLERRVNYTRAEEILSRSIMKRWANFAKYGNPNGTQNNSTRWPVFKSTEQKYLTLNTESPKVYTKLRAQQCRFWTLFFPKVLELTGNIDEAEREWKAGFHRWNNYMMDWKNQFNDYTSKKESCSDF
T1 sequence (P22303 whole entry): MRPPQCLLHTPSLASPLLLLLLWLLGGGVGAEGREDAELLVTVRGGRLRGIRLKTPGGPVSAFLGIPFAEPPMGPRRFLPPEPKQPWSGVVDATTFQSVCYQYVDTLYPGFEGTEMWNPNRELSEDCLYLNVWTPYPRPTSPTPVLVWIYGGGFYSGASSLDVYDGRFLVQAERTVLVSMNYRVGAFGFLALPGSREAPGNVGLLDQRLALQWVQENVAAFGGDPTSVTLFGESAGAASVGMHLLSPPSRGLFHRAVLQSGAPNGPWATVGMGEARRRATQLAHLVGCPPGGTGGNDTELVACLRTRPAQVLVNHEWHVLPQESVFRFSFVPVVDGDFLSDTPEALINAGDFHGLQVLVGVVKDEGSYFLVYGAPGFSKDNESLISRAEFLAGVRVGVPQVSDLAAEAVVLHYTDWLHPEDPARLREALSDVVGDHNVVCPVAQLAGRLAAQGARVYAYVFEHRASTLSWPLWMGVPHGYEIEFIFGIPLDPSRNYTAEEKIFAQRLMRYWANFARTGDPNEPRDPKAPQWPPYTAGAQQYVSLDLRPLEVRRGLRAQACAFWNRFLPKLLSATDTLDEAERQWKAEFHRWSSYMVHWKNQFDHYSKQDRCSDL
Sequence of Cholinesterase (P81908 whole entry): as the sequence (P81908 whole entry) above

Q: Which IC50 (Acetylcholinesterase [1]) does the source give for `COc1cc(/C=C/C(=O)NCC(=O)Nc2ccc(C)cc2)ccc1O` here?
A: 12.6 µM

Q: What about the inhibition [2] of the same molecule?
A: 35.6%

Q: For `COc1cc(/C=C/C(=O)NCC(=O)Nc2cccc(C#N)c2)ccc1O`, which IC50 (Acetylcholinesterase [1]) is on record?
A: 16 µM

Q: And the inhibition [2]?
A: 31.6%

Q: What does the source list for `COc1cc(/C=C/C(=O)NCC(=O)Nc2ccccc2Cl)ccc1O`?
A: IC50 (Acetylcholinesterase [1]): 5.72 µM; inhibition [2]: 47.4%

Q: With `COc1cc(/C=C/C(=O)NCC(=O)Nc2cccc(F)c2)ccc1O` as the molecule, how does the IC50 (Acetylcholinesterase [1]) read?
A: 22.1 µM

Q: And the inhibition [2]?
A: 38.3%

Q: Which IC50 (Acetylcholinesterase [1]) does the source give for `COc1cc(/C=C/C(=O)N2CCN(c3ccc(F)cc3)CC2)ccc1O` here?
A: 11 µM

Q: What about the inhibition [2] of the same molecule?
A: 27.7%

Q: With `COc1cc2c(cc1OC)C(=O)C(CC1CCN(Cc3ccccc3)CC1)C2` (stereo unspecified) as the molecule, how does the Activity (Mus musculus [3]) read?
A: Active

Q: What about the Activity (Mus musculus [4]) of the same molecule?
A: Active

Q: What about the Activity (Homo sapiens) of the same molecule?
A: inactive

Q: For `COc1cc(/C=C/C(=O)NCC(=O)Nc2ccc3ncccc3c2)ccc1O`, which IC50 (Cholinesterase) is on record?
A: 14.3 µM

Q: What about the IC50 [5] of the same molecule?
A: 77.6 µM

Q: What about the Activity [6] of the same molecule?
A: 18.6%

Q: What about the IC50 (Acetylcholinesterase [1]) of the same molecule?
A: 4.89 µM

Q: And the inhibition [2]?
A: 57.7%

Q: Which results are given for `COc1cc(/C=C/C(=O)NCC(=O)Nc2ccc3[nH]ccc3c2)ccc1O`?
A: Activity (Mus musculus [7]): Active; IC50 (Cholinesterase): 14 µM; IC50 [5]: 57.4 µM; Activity (Mus musculus [8]): Active; inhibition [9]: Active; Activity (Mus musculus [10]): Active; Activity [11]: Non-Toxic; Activity (Mus musculus [12]): Active; cytotoxicity at 24 h, 20 µM [13]: 4.39%; Activity [6]: 31.3%; Activity [14]: Non-Toxic; Activity (Mus musculus [15]): Active; Activity (Mus musculus [16]): Active; inhibition (Acetylcholinesterase [17]): Active; Activity (Homo sapiens): Active; IC50 (Acetylcholinesterase [1]): 5.74 µM; Activity [18]: Active; Activity [19]: Active; Activity [20]: Non-Toxic; inhibition [2]: 58.7%; Activity [21]: Non-Toxic; Activity (Mus musculus [22]): Active; Activity [23]: Non-Toxic; Activity [24]: Non-Toxic

Q: What does the source list for `COc1cc(/C=C/C(=O)N2CCN(c3cccc([N+](=O)[O-])c3)CC2)ccc1O`?
A: IC50 (Acetylcholinesterase [1]): 23.4 µM; inhibition [2]: 37.9%

Q: Which IC50 (Acetylcholinesterase [1]) does the source give for `COc1cc(/C=C/C(=O)N2CCN(c3ccc(C)cc3)CC2)ccc1O` here?
A: 19.5 µM

Q: What about the inhibition [2] of the same molecule?
A: 38.1%

Q: With `COc1ccc(N2CCN(C(=O)/C=C/c3ccc(O)c(OC)c3)CC2)cc1` as the molecule, how does the IC50 (Acetylcholinesterase [1]) read?
A: 12 µM

Q: What about the inhibition [2] of the same molecule?
A: 44.7%

Q: For `COc1cc(/C=C/C(=O)NCC(=O)Nc2ccc(C#N)cc2)ccc1O`, which IC50 (Acetylcholinesterase [1]) is on record?
A: 17.4 µM

Q: And the inhibition [2]?
A: 35.7%

Q: What does the source list for `COc1cc(/C=C/C(=O)NCC(=O)Nc2ccccc2F)ccc1O`?
A: IC50 (Acetylcholinesterase [1]): 17.2 µM; inhibition [2]: 31.9%

Q: For `COc1cc(/C=C/C(=O)NCC(=O)Nc2ccccc2)ccc1O`, which IC50 (Acetylcholinesterase [1]) is on record?
A: 21.9 µM

Q: And the inhibition [2]?
A: 38.2%

Q: Which results are given for `COc1cc(/C=C/C(=O)NCC(=O)Nc2ccc(F)cc2)ccc1O`?
A: IC50 (Acetylcholinesterase [1]): 12.9 µM; inhibition [2]: 42.2%
